In the oligonucleotide strings, read from the 5' end, every base follows the letter of its sugar. An asterisk marks phosphorothioate; unmarked linkages are phosphodiester. Other units and linkages are bracketed, terminal groups are in braces. A string of capitals states the bases alone. e = 2'-O-(2-methoxyethyl) (MOE); [5mC] = 5-methylcytosine; d = 2'-deoxy (DNA)
Columns and labels:
[1] = system: mir-15a pri-miRNA; test: mir-15a pri-miRNA expression in T47D cells (real-time RT-PCR); format: cell-based, human; conditions: real-time RT-PCR
Method in brief: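 T47D cells transfected with 100 nM uniform 2′-MOE or gapmer oligomers. Pri-miRNA measured by real-time RT-PCR with a mir-15a-specific primer/probe set, normalized to 5.8S rRNA, expressed as percentage of untreated control RNA levels.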

[2] = system: differentiated adipocytes; test: Hallmark genes and triglycerides in differentiated adipocytes; format: cell-based, human; conditions: 250 nM, transfected day nine, measured 12th day post differentiation
From the text: The effect of the oligomeric compounds of the present invention targeting miRNAs on the expression of markers of cellular differentiation was examined in differentiated adipocytes.
As previously described, the HSL, aP2, Glut4, and PPARγ genes play important rolls in the uptake of glucose and the metabolism and utilization of fats. Also as previously described, an increase in triglyceride content is another well-established marker for adipocyte differentiation. Human white preadipocytes (Zen-Bio Inc., Research Triangle Park, N.C.) were grown in preadipocyte media (ZenBio Inc.). After the cells reached confluence (approximately three days), they were exposed to differentiation media (Zen-Bio, Inc.) containing a PPAR-γ agonist, IBMX, dexamethasone, and insulin for three days. Cells were then fed Adipocyte Medium (Zen-Bio, Inc.), which was replaced at 2 to 3 day intervals. One day before transfection, 96-well plates were seeded with 3000 cells/well. Cells were then transfected on day nine post-differentiation, according to standard published procedures with 250 nM oligonucleotide in LIPOFECTIN™ (Invitrogen Corporation, Carlsbad, Calif.) (Monia et al., J. Biol. Chem. 1993 268(19):14514-22). Oligomeric compounds were tested in triplicate on each 96-well plate, and the effect of TNF-α, known to inhibit adipocyte differentiation, was also measured in triplicate. Oligomeric compound treatments and transfectant-only negative controls may be measured up to six times per plate. On day twelve post-differentiation, cells were washed and lysed at room temperature, and the expression of the four hallmark genes, HSL, aP2, Glut4, and PPARγ, as well as triglyceride (TG) accumulation were measured in adipocytes transfected with the uniform 2′-MOE phosphorothioate (PS) previously described in Example 13 as well as the chimeric gapmer oligomeric compounds targeting the mir-143 miRNA and the mir-143 pri-miRNA described in Example 16. On day twelve post-differentiation, cells were lysed in a guanadinium-containing buffer and total RNA was harvested. The amount of total RNA in each sample was determined using a Ribogreen Assay (Molecular Probes, Eugene, Oreg.). Real-time PCR was performed on the total RNA using primer/probe sets for the adipocyte differentiation hallmark genes Glut4, HSL, aP2, and PPARγ. Triglyceride levels as well as mRNA levels for each of the four adipocyte differentiation hallmark genes are expressed relative to control levels (control=treatment with ISIS-29848 (SEQ ID NO: 737)).

[3] = system: T47D cells; test: Caspase-3 activity assay (apoptosis) in T47D cells; conditions: T47D cells, 200 nM, 48 hours, relative to untreated control

## 129690 (antisense TTAGAATACGTCGCGTTATG; sugars from the 5' end e5 d10 e5, all phosphorothioate, methylation of C not given here) [compound 129690]
[1]
  mir-15a pri-miRNA expression % UTC: 121 % UTC

## CTAGTGGTCCTAAACATTTCAC (chemistry not given here) [ISIS 327878, uniform 2′-MOE PS; targets mir-203]
[2]
  expression of hallmark marker genes in differentiated adipocytes: decreased expression of the aP2, HSL, Glut4 and PPARγ marker genes

## 328403 (antisense eA*eG*eG*e[5mC]*e[5mC]*dT*dA*dT*dT*d[5mC]*d[5mC]*dT*dG*dT*dA*eG*e[5mC]*eA*eA*eA) [compound 328403]
[3]
  Fold Increase over UTC (caspase activity): 1.0
